Data taken from patent US8507551B2, “Antimicrobial therapy for bacterial infections” (priority 2005, dated 2013).

Tests used:
[1] = tested on: WT and ΔCrtM S. aureus in human neutrophils; details: FIG. 2d
Method: Neutrophils were purified from healthy human volunteers using a Histopaque gradient (Sigma) per manufacturer's directions. Intracellular survival assays were performed as follows. Bacterial cultures were washed twice in PBS, diluted to a concentration of 4.5×10^6 cfu in 100 μl RPMI+10% FCS, and mixed with 3×10^5 neutrophils in the same media (multiplicity of infection, MOI=15:1), centrifuged at 700×g for 5 min, then incubated at 37° C. in a 5% CO2 incubator. Gentamicin (Gibco) (final concentration 400 μg/ml for S. aureus and 100 μg/ml for S. pyogenes) was added after 10 min to kill extracellular bacteria. At specified time points, the contents of sample wells were withdrawn, centrifuged to pellet the neutrophils, and washed to remove the antibiotic medium. Neutrophils were then lysed in 0.02% triton-X, and cfu calculated by plating on THA. Several assays were repeated with addition of a step involving preincubation of the bacterial inoculum with 10% autologous human serum for 15 min on ice.

[2] = tested on: WT and ΔCrtM S. aureus in mouse blood; details: FIG. 6c
Method: Bacteria were washed twice in PBS, diluted to an inoculum of 10^4 cfu in 25 μl PBS, and mixed with 75 μl of freshly drawn human or mouse blood in heparinized tubes. The tubes were incubated at 37° C. for 4 h with agitation, at which time dilutions were plated on THA for enumeration of surviving cfu.

WT strain of S. aureus [3] = details: earlier report; moderate residual accumulation of δ carotenoid intermediate noted; cited from earlier work
WT S. aureus [4] = assay: Whole blood killing assay, WT strain; assay type: cell-based, Staphylococcus aureus; details: WT S. aureus cultured with SKF 525-A, FIG. 4c
Method: Wild-type and ΔCrtM mutant S. aureus were cultured in the presence or absence of SKF 525-A at the indicated concentrations. […] Results shown are representative of at least three experiments.
(§1) Given the protective effect provided to the bacteria by the golden yellow pigments, a pharmacologic agent that inhibits carotenogenesis might render S. aureus more susceptible to immune clearance.

ΔCrtM mutant S. aureus [5] = assay: Singlet oxygen susceptibility assay (methylene blue and light), ΔCrtM mutant control; assay type: cell-based, Staphylococcus aureus; details: ΔCrtM mutant exposed to SKF 525-A, FIG. 4b
Method: (§2) Wild-type and ΔCrtM mutant S. aureus were cultured in the presence or absence of SKF 525-A at the indicated concentrations. Depicted are the observed effects on A) pigmentation phenotype, B) singlet oxygen susceptibility, and C) survival in murine whole blood. Results shown are representative of at least three experiments.
(§3) Tests for susceptibility to oxidants were performed either in PBS (S. aureus) or THB (S. pyogenes). Hydrogen peroxide (H2O2) was added to 1.5% final concentration, […] bacteria incubated at 37° C. for 1 h, then 1,000 U/ml of catalase (Sigma) added to quench residual H2O2. […] For the singlet oxygen assay, 10^8 S. aureus or 4×10^8 S. pyogenes were incubated at 37° C. in individual wells of a 24-well culture plate in the presence or absence of 1-6 μg/ml methylene blue and situated exactly 10 cm from a 100-watt light source. Bacterial viability was assessed after 1-3 h by plating dilutions on THA.
as §1

WT strain of S. aureus [6] = assay: Pigment production of S. aureus grown in the presence of the agent; assay type: cell-based, Staphylococcus aureus; details: FIG. 4a
Method: as §2
Wild-type S. aureus strain (Pig1), isolated from the skin of a child with atopic dermatitis. Streptococcus pyogenes strain 5448 is a well-characterized serotype M1T1 clinical isolate^18. CD1 and C57Bl/6 mice were purchased from Charles River. The gp91^Phox−/− mice were bred at the Veteran's Administration Medical Center, San Diego and maintained on trimethoprim/sulfamethoxazole prophylaxis until 3 d prior to experiments. S. aureus and S. pyogenes were propagated in Todd-Hewitt broth (THB) or on THB agar (Difco, Detroit, Mich.). Unless otherwise indicated, all experiments were performed with bacteria derived from S. aureus 36-48 h stationary phase cultures or S. pyogenes 24 h stationary phase cultures, a point when pigmentation phenotypes were readily apparent.
Stationary phase (48 h) cultures of WT S. aureus Pig1 and its isogenic ΔCrtM mutant were subjected to methanol extraction. The absorbance profile of the extracts was measured with a MBA 2000 spectrophotometer (Perkin Elmer). […]

ΔCrtM mutant S. aureus [7] = assay: Whole blood killing assay, ΔCrtM mutant control; assay type: cell-based, Staphylococcus aureus; details: ΔCrtM mutant exposed to SKF 525-A, FIG. 4c
Method: as §2, §1

WT S. aureus [8] = assay: Singlet oxygen susceptibility assay (methylene blue and light), WT strain; assay type: cell-based, Staphylococcus aureus; details: WT S. aureus cultured with SKF 525-A, FIG. 4b
Method: as §2, §3, §1

WT and ΔCrtM S. aureus = assay: Protease and cathelicidin sensitivity assays; assay type: cell-based, Staphylococcus aureus; details: WT vs ΔCrtM S. aureus, 2 h at 37° C., FIG. 6d, e
Method: Human neutrophil elastase, and cathepsin G were purchased from Calbiochem. The antimicrobial peptide mCRAMP was synthesized at the Louisiana State University Protein Facility (Martha Juban, Director). S. aureus cultures were diluted (1:2,000) in 10 mM phosphate buffer (pH 7.2)+0.5% LB to 1×10^6 CFU/ml. Ninety μl of this bacterial suspension was added to replicate wells in a 96-well plate. Dilutions of the cathepsin G (20 and 100 mU/ml), human neutrophil elastase (12.5 and 50 μg/ml), and murine CRAMP (0.4-3 μM) were prepared in 10 mM phosphate buffer and added to wells in 10 μl volume; 10 mM phosphate buffer alone was used as a negative control. After 2 h incubation at 37° C., 25 μl aliquots of each well were serially diluted in PBS and plated on THB. Each experiment was performed in duplicate and repeated.

## c1ccc2c(c1)[I+]c1ccccc1-2 [DPI, diphenyleneiodonium]
[1]
  survival of WT and ΔCrtM S. aureus in human neutrophils when oxidative burst inhibited: survived equally well
[2]
  survival of WT and ΔCrtM S. aureus in mouse blood when oxidative burst inhibited: survived equally well

## CCCC(C(=O)OCCN(CC)CC)(c1ccccc1)c1ccccc1 [SKF 525-A, 2-diethylaminoethyl-2,2-diphenyl-valerate]
WT strain of S. aureus [3]
  pigment formation in S. aureus (previously shown): inhibit pigment formation
WT S. aureus [4]
  ability to survive in human whole blood: decrease
ΔCrtM mutant S. aureus [5]
  effect on oxidant susceptibility: no significant effects
WT strain of S. aureus [6]
  pigment production: dose-dependent decrease
ΔCrtM mutant S. aureus [7]
  effect on blood survival: no significant effects
WT S. aureus [8]
  susceptibility to singlet oxygen killing: dose-dependent increase

## cathepsin G: granule protease purchased from Calbiochem
WT and ΔCrtM S. aureus
  susceptibility of S. aureus to antimicrobial action: no difference

## human neutrophil elastase: granule protease purchased from Calbiochem
WT and ΔCrtM S. aureus
  susceptibility of S. aureus to antimicrobial action: resistant

## mCRAMP: murine cathelicidin antimicrobial peptide, synthesized at Louisiana State University Protein Facility (ISRLAGLLRKGGEKIGEKLKKIGQKIKNFFQKLVPQPE; Cathelin-related antimicrobial peptide; UniProt P51437 135-172, looked up)
WT and ΔCrtM S. aureus
  susceptibility of S. aureus to antimicrobial action: equally susceptible
